Patent US20070179085A1, “MODULATION OF RHAMM-CAVEOLIN/LIPID RAFT INTERACTIONS TO AFFECT DEVELOPMENT, RESPONSES TO TISSUE INJURY, ANGIOGENESIS, TUMORIGENESIS, METASTASIS AND GROWTH FACTOR/CYTOKINE RESPONSES” (priority 2005, published 2007)

Tests used:
[1] = test system: RHAMM:caveolin; test: Co-immunoprecipitation of RHAMM and caveolin-1 from SMC lysates; format: cell-based, rat; conditions: peptide 24 hours prior to and during 6 hour PDGF-BB treatment
Method: For standard experiment, 100 μg of lysate was used. Samples were pre-cleared with 50 μl of Protein G-agarose for 60 minutes at room temperature while rotating then centrifuged at 13000 g for 5 minutes. The supernatant was transferred to a new tube and incubated with 1 μg of antibody overnight at 4° C. while rotating. The samples were then incubated with 20 μl of Protein G-agarose for 1 hour at 4° C. while rotating. Beads were collected by centrifugation (1 minute at high speed) and then washed three times with lysis buffer (50 mM Tris, pH 8.0/140 mM NaCl/[…]/0.4% Deoxycholate/protease inhibitor cocktail (Boehringer Manheim). The beads were resuspended in at least 40 μl of 2× Novex Sample Buffer and western blot was performed as per NUPAGE protocol (Invitrogen). Primary and secondary antibodies were diluted (R36: 5 μg/ml, Caveolin-1: 0.25 μg/ml) and pre-incubated together over-night before use. For biotin labeling experiments, 6 μl of streptavidin-agarose was added to 25 μg of protein and incubated for 3 hours at 4° C. Beads were collected by centrifugation at 13000 g for 1 minute, washed and resuspended in Novex sample buffer as above.
Therefore, peptides were used to interfere with RHAMM:caveolin to establish direct protein-protein interactions. […]

[2] = test system: erk; test: Immunoblot for total and phosphorylated-erk in PDGF-BB stimulated SMC; format: cell-based, rat; conditions: peptide pretreatment 24 hours, then 10-minute PDGF-BB
[3] = test system: 70 kDa RHAMM; test: MBCD-mediated release of RHAMM from SMC (caveolar disruption); format: cell-based, rat; conditions: MBCD 30 minutes, absence of PDGF-BB
Method: Caveolar disruption was performed as described below. Cells were grown to confluency in 150 mm dishes and quiesced for 48 hr. After 6 hr PDGF treatment, media was removed and replaced with 20 mm methyl-beta-cyclodextrin in TKM buffer (50 mM Tris-HCl, pH7.4, 25 mM KCl, 5 mM MgCl, 1 mM EDTA). Cells were incubated for 20-30 minutes at 37° C., and the cell-free supernatant was collected after centrifugation at 2000 g for 10 minutes.
Since the GPI anchor links to a hydrophobic lipid tail that inserts into the exoplasmic leaflet of the cell membrane, a liquid ordered arrangement is necessary to maintain its integrity. […] Methyl-beta-cyclodextrin (MBCD), a cell surface-specific cholesterol-extracting agent, can be used to disrupt lipid rafts and caveolae to release endogenous GPI-anchored proteins (Ilangumaran, Madore, McCabe). […] Proteins in the cholesterol-rich annulus are sensitive whereas those in the sphingolipid core are resistant to release by MBCD. SMC cultures were treated with MBCD for 30 minutes, and the cell free supernatant was collected. The supernatant was run by volume on SDS-PAGE and immunoblotted for RHAMM and urokinase-plasmingen activator receptor (uPAR), a defined GPI-anchored protein previously shown to be present in lipid domains. Without MBCD, RHAMM was not released into the supernatant in detectable amounts, irrespective of PDGF-BB treatment (FIG. 11a, lane 2 vs 4). […]

[4] = test system: 70 kDa RHAMM; test: GPI-anchor identification: Triton X-114 phase separation, PI-PLC, surface biotin labeling; format: cell-based, rat; conditions: co-treatment with PDGF-BB and mannosamine 10 mM for six hours
Method: Differential solubilization and temperature-induced Triton X-114 phase separation was performed as briefly described with 75-100 μg of membrane protein. Cells were grown to confluency and quiesced for 48 hours at which point cells were harvested for membrane protein. Some samples were incubated with PI-PLC for 1 hour at 37° C. before proceeding with Triton X-114 phase separation. PI-PLC was used at 0.375 U/100 μg membrane protein. In separate experiments Mannosamine-HCl was used at 10 mM during 6 hour PDGF-BB treatment. For radiolabel experiments, cells were grown to confluency and quiesced for 48 hours in inositol-free media and then incubated with 4 μCi/mL of ^3H myo-inositol during 6 hour PDGF-BB treatment. For surface biotinylation experiments, media was removed after treatment and replaced with 1 mg/ml biotin in defined media and incubated for 20 minutes at 37° C.

[5] = test system: SMC; conditions: 0.0 μg/ml of HA; previously demonstrated; cited from earlier work
[6] = test system: rat aortic SMC; test: SMC migration at leading edge of single scratch wounds (timelapse cinemicrography); format: cell-based
Method: Primary cultures of rat aortic SMC were established as previously described. […]
The medium of confluent SMC cultures was then changed to DMEM defined medium for 48 hours for quiescence. Migration of SMC at the leading edge of single scratch wounds of confluent cultures was determined using timelapse cinemicrography as previously described and summarized below. […] Media HA concentration was determined as described below. […]
SMC plated in DMEM complete medium were allowed to grow to confluence. After overnight quiescence, a single scratch wound was made in the center of the culture plate using a sterile cell scraper and fresh defined medium was added The motility of cells at the leading edge of these wounds was determined using timelapse cinemicrography (Metamorph, Universal Imaging Corporation, West Chester, Pa.) as previously described. Briefly, cells were monitored using a Nikon TE-300 inverted microscope (Nikon Instruments, Inc., Melville, N.Y.) to which a video camera (Hamamatsu CCD, Inc., Hamamatsu City, Japan) was attached. At least 20 cells per high power field were imaged every hour and the mean distance traveled per frame was measured to obtain mean cell velocities.

[7] = test system: rat aortic SMC; test: SMC proliferation (MTS assay); format: cell-based
Method: In order to determine the effect of PDGF-BB on SMC proliferation, 80% confluent and quiescent cultures of SMC were stimulated for 72 hours with varying doses of PDGF-BB (2-50 ng/ml) and cell number was determined using the MTS assay as described in Methods. A bell-shaped dose response curve was obtained with maximum stimulation of SMC proliferation at 10-25 ng/ml (FIG. 7d, *p<0.01 vs. control).
The effect of HA on SMC proliferation and modulation by PDGF-BB was also examined. SMC that were either maintained in serum-free medium or pre-stimulated with 10 ng/ml PDGF-BB for 24 hours were exposed to HA in serum-free medium at concentrations of 0.1-1000 μg/ml for 48 hours. […] As expected, baseline proliferation was increased in SMC cultures following exposure to 10 ng/ml PDGF-BB for 24 hours (FIG. 7e, *p<0.01 vs. non-stimulated cells). […] In order to determine the contribution of RHAMM to SMC proliferation induced by HA, SMC cultures were treated with R36 throughout the pre-stimulation period with PDGF-BB and subsequently during HA stimulation. Non-immune IgG was used as a negative control and a blocking anti-PDGF-BB antibody was used as a positive inhibitory control. Cell number was determined by MTS assay 48 hours after HA stimulation with and without antibody treatments. As noted before, PDGF-BB pretreatment increased baseline proliferation, FIG. 7e*p<0.01 vs. no PDGF), and HA stimulated a further 25% increase in proliferation, FIG. 7e**p<0.05 vs. PDGF, no HA). […] Anti-PDGF-BB antibody blocked 50% of the PDGF-mediated increase in baseline proliferation, FIG. 7e#p<0.01 anti-PDGF vs. normal IgG).

[8] = test system: rat aortic SMC; test: HA content of medium of SMC cultures (ELISA like assay); format: cell-based; conditions: quiescent SMC treated 24 hours, normalized to total protein
Method: The medium of confluent SMC cultures was then changed to DMEM defined medium for 48 hours for quiescence. Migration of SMC at the leading edge of single scratch wounds of confluent cultures was determined using timelapse cinemicrography as previously described and summarized below. To observe the effect of HA on this migratory response to wounding, cultures were stimulated with varying concentrations of HA (0.1-100 μg/ml) and studied for 24 hours. For PDGF-BB stimulated HA synthesis experiments, quiescent SMC were stimulated with varying doses of PDGF-BB (2-100 ng/ml) for 24 hours. Media HA concentration was determined as described below. All experiments described below included 10 replicates and each experiment was repeated at least 3 times.
A modified ELISA assay was utilized for determination of HA concentration.
In order to determine the optimal concentration of PDGF-BB required to simulate HA synthesis in SMC, the HA content of medium from quiescent SMC treated for 24 hours with various concentrations of PDGF-BB was determined using an ELISA like assay for HA. Resulting values were normalized to the total protein content of the cultures. […] We therefore used this concentration of PDGF-BB for all subsequent experiments.

CAV: caveolin scaffolding domain (aa 82-101) peptide fused to antenapedia sequence (RQIKIWFQNRRMKWKKDGIWKASFTTFTVTKYWFYR)
co-immunoprecipitation of RHAMM and caveolin-1 [1]: decreased co-immunoprecipitation | PDGF-BB-induced erk phosphorylation after peptide pretreatment [2]: inhibited

RM: peptide of RHAMM caveolin-binding motif (KWRLL YEEL YDKTKPFQ) fused to antenapedia sequence RQIKIWFQNRRMKWKK (YDKTKPFQRQIKIWFQNRRMKWKK)
co-immunoprecipitation of RHAMM and caveolin-1 [1]: decreased co-immunoprecipitation | PDGF-BB-induced erk phosphorylation after peptide pretreatment [2]: inhibited

Methyl-beta-cyclodextrin [MBCD]
release of 70 kDa RHAMM into supernatant by MBCD [3]: released into supernatant

N[C@@H]1C(O)O[C@H](CO)[C@@H](O)[C@@H]1O (stereo partly drawn) [mannosamine]
presence of RHAMM in pellet phase after Triton X-114 fractionation [4]: completely inhibited

hyaluronan [HA]
random migration of sub-confluent SMC cultures [5]: increases their random migration | effect of exogenous HA on SMC migration after single scratch wounding ([6]; 0.001 μg/ml HA added to wounded cultures): further stimulation of SMC that continued up to 18 hours | proliferative response of SMC to HA without PDGF-BB pre-stimulation ([7]; HA 0.1-1000 μg/ml, 48 hours, serum-free medium): no proliferative response | HA concentration of maximal proliferative response ([7]; after pre-stimulation with 10 ng/ml PDGF-BB): 100 µg/mL | further increase in SMC proliferation in response to HA ([7]; after pre-stimulation with 10 ng/ml PDGF-BB for 24 hours, HA 48 hours): 25%

B1: PDGF-BB: Platelet-Derived Growth Factor BB dimer, obtained from R & D Systems (protein, UniProt P01127 82-190, looked up)
Platelet-derived growth …: SLGSLTIAEPAMIAECKTRTEVFEISRRLIDRTNANFLVWPPCVEVQRCSGCCNNRNVQCRPTQVQLRPVQVRKIEIVRKKPIFKKATVTLEDHLACKCETVAAARPVT
modifications: homodimer BB
notes: Platelet-Derived Growth Factor BB dimer, obtained from R & D Systems
increase of mean cell velocity of SMC at leading edge of wounds ([6]; PDGF-BB 10 ng/ml vs non-stimulated control): two-fold | PDGF-BB dose of maximal HA synthesis [8]: 10 ng/mL | baseline SMC proliferation ([7]; 10 ng/ml PDGF-BB for 24 hours): increased | PDGF-BB dose of maximum stimulation of SMC proliferation ([7]; 72 hours, doses 2-50 ng/ml, bell-shaped curve): 10 to 25 ng/mL
